In patent US9289463B2, “Octreotide-modified nanomedicine for cancer treatment or cancer palliative care” (NANOSION CO., LTD., priority 2010, dated 2016):
pIC50: −log10 of the molar value.

Experiments:
[1] = tested on: TT cells; experiment: Cytotoxicity test using CPT-11-encapsulating liposomes; type: cell-based; conditions: Homo sapiens
Procedure: TT cells were seeded into a 96-well plate at a density of 10^4 cells/well, and free CPT-11, 1.6Oct-CL or SL was added thereto at various concentrations prior to incubation for 48 hours, 72 hours and 96 hours. Next, after rinsing the cells with PBS, a coloring reagent (Cell Counting kit-8, Dojindo Laboratories) was added at 10 μL per well (100 μL), the absorbance at 450 nm was measured and IC50 (μM) was calculated.

[2] = tested on: TT cells; experiment: Effect of CPT-11-encapsulating liposomes in vivo, TT cell tumor-bearing mice (four mice per group)
Procedure: The following test was conducted to examine the in vivo effect of CPT-11-encapsulating Oct-modified liposomes. After transplanting 10^7 TT cells into mice (ICR nu/nu mice, 6-week-old, female, Oriental Yeast Co., Ltd.), tumors with tumor volumes of […] formed. To four mice in each group there were administered unmodified liposomes (CL) at 10 mg/kg body weight, as the CPT-11 amount, liposomes modified with 1.6 mol % Oct-PEG-DSPE (1.6Oct-CL), and liposomes modified with 1.6 mol % Oct-PEG-DSPE and 0.9% mol % PEG-DSPE (1.6Oct-SL). The administration was twice (1st and 4th days) through the caudal vein. As a control there was administered physiological saline and free CPT-11 (30 mg/kg), three times (1st, 4th and 7th days). The tumor size and body weight were periodically measured. […] The column headed “% ILS” in Table 3 contains the values calculated by the formula: [(mean survival days of treated group)−(mean survival days of control group)/(mean survival days of control group)]×100(%), with physiological saline as the control. The column headed “Median” in Table 3 contains the median values for survival time (days) for each group consisting of N animals.

[3] = tested on: TT cells; experiment: Competitive inhibition test of intracellular uptake; type: cell-based, human; conditions: free Oct in 20-fold molar excess (84 nmol/ml), 37° C., 2 hours
Procedure: A competitive inhibition test was conducted to examine whether or not the intracellular uptake observed in Example 2 takes place via somatostatin receptor (SSTR).
The competitive inhibition is shown schematically in FIG. 2(A).

[4] = tested on: TT cells; experiment: Cytotoxicity test using non-drug-encapsulating liposomes; type: cell-based, human; conditions: 0.042-8.4 μM Oct, 96 hours, no drug encapsulated
Procedure: Next, a cytotoxicity test was conducted using non-CPT-11-encapsulating liposomes, in order to evaluate the effect of the ligand (Oct) on cytotoxicity. […] After rinsing the cells with PBS, a coloring reagent was added and the absorbance at 450 nm was measured.
In FIG. 4, the four bars for each concentration are, from the left, the cell survival rates (%) for free Oct, Empty 1.6Oct-CL, Empty 4.4Oct-CL and Empty SL, respectively.

[5] = liposomes 10 mg/kg as CPT-11 twice, free CPT-11 30 mg/kg three times

## CCc1c2c(nc3ccc(OC(=O)N4CCC(N5CCCCC5)CC4)cc13)-c1cc3c(c(=O)n1C2)COC(=O)[C@]3(O)CC [Free CPT-11, irinotecan]
[1]; 48 hrs incubation
  pIC50: 4.87
[1]; 72 hrs incubation
  pIC50: 5.18
[1]; 96 hrs incubation
  pIC50: 5.66
[2]; liposomes 10 mg/kg as CPT-11, caudal vein, 1st and 4th days, free CPT-11 30 mg/kg, 1st, 4th and 7th days
  Survival time Median: 88 (4) days
[2]; [5]
  survival time and survival rate (life-lengthening effect): no life-lengthening effect was observed
  tumor size: tumor size increased
[2]; physiological saline as control, liposomes 10 mg/kg as CPT-11 twice, free CPT-11 30 mg/kg three times
  Survival time % ILS: 30.4%

## C[C@@H](O)[C@@H]1NC(=O)[C@H](CCCCN)NC(=O)[C@@H](Cc2c[nH]c3ccccc23)NC(=O)[C@H](Cc2ccccc2)NC(=O)[C@@H](NC(=O)[C@H](N)Cc2ccccc2)CSSC[C@@H](C(=O)N[C@H](CO)[C@@H](C)O)NC1=O [free Oct, octreotide]
[3]
  effect of competitor on intracellular uptake of DXR-encapsulating 1.6Oct-CL: did not affect
[4]
  cytotoxicity (cell survival rate): Cytotoxicity was observed
